We go through 2 compounds from publication PMC4269305, “The impact of P-gp functionality on non-steady state relationships between CSF and brain extracellular fluid” (Journal of Pharmacokinetics and Pharmacodynamics, 2013).

Data set [1] is described as follows: Plasma protein binding by Centrifree ultrafiltration. Format: in vitro ADME. The settings on record: male, Wistar WU, rat, plasma (from dosed rats and from spiked blank blood); linear; not affected by co-administration of tariquidar. The procedure:
[…]. […] All blood samples were temporarily stored in heparin (10 IU) coated Eppendorf cups. […]. The spiked blood samples were then incubated in a shaking water bath at 37 °C for 30 min.
Plasma protein binding was determined with Centrifree® ultrafiltration devices (Millipore BV, Etten-Leur, the Netherlands). All procedures were performed according to the user’s manual. The ultrafiltrate was diluted ten times with saline before the analysis.

A further data set can be described thus: pKa and ionization. Format: physicochemical. The source says:
Therefore, based on our data, it appears that quinidine is also transported by other transporters at the BBB and BCSFB, in the direction of the brain. However, there is no direct information in literature to support this. […] The question remains how this relates to the in vivo situation, like ours. […] OCTs have been localized both at the BBB [66], as well as at the BCSFB [67].

The target in another data set is Na^+-K^+-ATPase. The settings on record: cited from earlier work.
Another data set deals with P-gp. Details: method as in PMID 11212278. The settings on record: cited from earlier work.
Details of data set [2]: method as in PMID 18632828, PMID 21199574. Conditions: 15 mg/kg tariquidar; up to 3 h after administration; cited from earlier work.

Structures are written as SMILES.

For the compound `C=C[C@H]1C[N@@]2CC[C@H]1C[C@@H]2[C@@H](O)c1ccnc2ccc(OC)cc12` [quinidine, Quinidine], the fraction unbound at 30 min in data set [1] was 0.135. Besides, the “% ionized” value in the data set “pKa and ionization” (pH 7.3) turned out to be 80%; in the data set “pKa and ionization” (pH 7.4) it was 76%. In addition, the “reported IC50 for inhibition of Na+-K+-ATPase activity” value at Na^+-K^+-ATPase is ~ 30 μg/ml.
In the case of `COc1cc2c(cc1OC)CN(CCc1ccc(NC(=O)c3cc(OC)c(OC)cc3NC(=O)c3cnc4ccccc4c3)cc1)CC2` [tariquidar, Tariquidar], the “half-maximum inhibition constant (IC50) for P-gp” value with P-gp was “approximately 25 ng/ml”. Also, in data set [2], the “plasma and brain concentrations relative to the IC50 value (fold higher)” value was “over 50 -fold”.
